Source: patent US4889871A, “Alkoxy-substituted dihydrobenzopyran-2-carboxylate derivatives” (G. D. Searle & Co., priority 1988, dated 1989)
Where two headings read alike, the source gives them in different places.

Key:
LTB4 receptor = target: T1, LTB4 receptor (Homo sapiens, UniProt Q15722); assay: LTB4 receptor binding assay ((3H) LTB4, human neutrophils); conditions: Table 1
T1 construct: Neutrophils were purified from venous blood of normal human donors; endogenous in cells; host or cells: purified human blood neutrophils (intact cells)
T1 sequence (Q15722 whole entry): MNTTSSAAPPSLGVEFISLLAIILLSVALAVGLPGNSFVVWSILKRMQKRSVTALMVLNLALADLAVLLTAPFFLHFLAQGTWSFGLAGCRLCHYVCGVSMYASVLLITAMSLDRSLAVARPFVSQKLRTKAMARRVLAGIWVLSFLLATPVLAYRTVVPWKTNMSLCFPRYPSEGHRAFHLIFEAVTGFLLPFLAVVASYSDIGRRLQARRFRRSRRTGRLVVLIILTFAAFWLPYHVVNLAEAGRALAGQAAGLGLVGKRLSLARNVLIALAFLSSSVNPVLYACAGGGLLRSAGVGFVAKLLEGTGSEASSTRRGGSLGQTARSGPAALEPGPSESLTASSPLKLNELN
Procedure: Neutrophils (4-6×10^6) in 1 ml Hanks' balanced salt solution containing 10 mM HEPES buffer (HBSS), pH 7.4 and 30 μM nordihydroguaiaretic acid were incubated with 0.6×10^-9 M (^3 H) LTB4 in the presence or absence of test compounds. The incubation was carried out at 0° C. for 45 minutes and terminated by adding 5 ml of ice-cold HBSS followed by rapid filtration of incubation mixture under vacuum through GF/C glass fiber filters. The filters were further washed with 10 ml HBSS and radioactivity was determined. Specific binding was defined as the difference between total binding and nonspecific binding which was not displaced by 10^-7 M unlabeled LTB4. All data refer to specific binding.

guinea pig ileum = target: T2, guinea pig ileum (Cavia porcellus, UniProt Q2NNR5); assay: LTD4 antagonism in guinea pig ileum (contraction); conditions: for Kb: read-out: Guinea Pig Ileum Contraction pA2 (converted)
T2 construct: from tissue; host or cells: guinea pig ileum segments
T2 sequence (Q2NNR5 1-340): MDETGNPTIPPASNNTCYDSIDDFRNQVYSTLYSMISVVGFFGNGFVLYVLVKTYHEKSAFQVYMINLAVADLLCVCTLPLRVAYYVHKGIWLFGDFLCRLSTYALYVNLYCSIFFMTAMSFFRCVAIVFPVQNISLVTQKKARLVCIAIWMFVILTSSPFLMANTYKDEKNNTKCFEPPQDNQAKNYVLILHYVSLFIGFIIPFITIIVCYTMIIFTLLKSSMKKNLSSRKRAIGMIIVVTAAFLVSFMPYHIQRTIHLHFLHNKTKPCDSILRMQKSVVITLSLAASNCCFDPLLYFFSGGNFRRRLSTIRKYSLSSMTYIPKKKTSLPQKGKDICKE
Procedure: Fresh segments of guinea pig ileum were suspended in 2 ml. tissue baths containing oxygenated modified Tyrodes solution. […] The ileum segments were washed and rested between exposures to agonist. Following this, the tissues were incubated with a single concentration of test compound and the agonist dose-response procedure was repeated. The dose ration is a measure of the antagonist's ability to shift the agonist dose-response curve to the right. It is derived as the concentration of agonist necessary to reach a given response level in the present (A') versus the absence (A) of antagonist. For example, if the test concentration of compound had no effect on the agonist-induced response (A'=A) the dose-ratio would approximate 1. […] One dose-ratio value is determined for each strip of ileum used to test antagonist. […] Schild analysis examines the linearity of the function described by the dose-ratios written as log (A'/A) versus antagonist concentration. If linearity is confirmed and the slope approximates -1, inhibition is considered to be competitive. […] This value is considered to be a measure of the affinity of the competitive antagonist.

human neutrophils [1] = assay: Modified Boyden chamber chemotaxis (LTB4, human neutrophils); type: cell-based; conditions: Neutrophil
Procedure: Human neutrophils were isolated from citrated peripheral blood using standard techniques of dextran sedimentation, followed by centrifugation on Histopaque® sterile solution (Sigma) or Ficoll-paque® (Pharmacia) and hypotonic lysis of erythrocytes. A final cell suspension of 3.4×10^6 neutrophils/ml of HEPES-buffered Hanks balanced salt solution (HBSS, pH 7.3) was added to the upper well (0.8 ml) of a modified Boyden chamber (blind well). The lower well (0.2 ml), separated by a polycarbonate membrane (Nuleopore Corp.), contained HBSS or 3×10^-8 M LTB4 in the presence of absence of test compound. Following a 90 minute incubation at 37° C. in 5% CO2 -95% air, cells from the lower well were lysed and nuclei counted in a Model S-Plus-IV Coulter Counter. Percent inhibition was calculated from cell counts corrected for random migration by subtracting the mean of the HBSS control.

human neutrophils [2] = assay: Human neutrophil degranulation assay (LTB4-induced, myeloperoxidase release); type: cell-based; conditions: Table 1, LTB4 (5×10^-8 M)
Procedure: Neutrophils were purified from venous blood of normal human donors using standard techniques of dextran sedimentation, centrifugation on Ficoll-paque® (Pharmacia) or Histopaque® sterile solution (Sigma) and hypotonic lysis of erythrocytes (Boyum, A., Isolation of Leukocytes From Human Blood: Further Observations. Scand. J. Lab. Clin. Invest., 21 (Suppl. 97): 31, 1968). The purity of isolated neutrophils was >95%.
Neutrophil degranulation was determined by measuring the release of myeloperoxidase activity into the incubation medium. Neutrophils (3×10^6) in 1 ml HBSS solution were preincubated with cytochalasin B (5 μg) at 37° C. for 5 minutes, followed by preincubation with test compounds for 7 minutes. Neutrophils were then incubated for 2 to 20 minutes with either LTB4 (5×10^-8 M) or the chemotactic peptide f-met-leu-phe (5×10^-6 M) to induce degranulation. Following incubation, samples were centrifuged and myeloperoxidase was extracted from the cell pellets by sonication in phosphate buffer containing 0.4% Triton X-100. Triton X-100 was also added to the supernatants to a concentration of 0.4%. The supernatants and the pellet - extracts were then assayed spectrophotometrically for myeloperoxidase activity by determining the rate of decomposition of H2 O2 with o-dianisidine as hydrogen donor as described by Renlund, et al. (Renlund, D. G., MacFarlane, J. L., Christensen, R. D., Lynch, R. E., and Rothstein, G., A Quantitative And Sensitive Method For Measurement Of Myeloperoxidase, Clinical Research 28:75A, 1980). Myeloperoxidase activity released into the supernatant was expressed as the percent of the average total activity (pellet plus supernatant).

LTD4 receptor = target: T3, LTD4 receptor (Cavia porcellus, UniProt Q2NNR5); assay: LTD4 receptor binding assay using guinea pig lung membrane preparations; conditions: for Receptor Binding LTD4 IC50: Table 1, results are from Table 3, 10^-5 M
T3 construct: from tissue; host or cells: lung membranes of male Hartley guinea pigs
T3 sequence (Q2NNR5 1-340): T2 sequence (Q2NNR5 1-340)
Procedure: MEMBRANE PREPARATIONS: For each membrane preparation, 10-11 male Hartley guinea pigs, weighing less than 350 gm, were sacrificed by guillotine. The lungs were rapidly removed and placed in ice-cold 50 mM Trisma 7.0 buffer. After all the lungs were collected, each was probed free of bronchial tissue to at least the level of tertiary branching as observed through a dissecting lamp. The tissue was minced with a razor blade on a damp paper towel and placed into fresh ice-cold Trisma 7.0 buffer. When all the tissues had been processed, they were pooled, drained and weighed. Nine volumes of cold buffer were added and the tissue was polytroned for 6-10 second bursts with a 1 minute cool down period in an ice bath between each burst. The homogenate was filtered through a gauze pad and centrifuged at 1085× g for 15 minutes at 4° C. Supernatants were saved and centrifuged at 40,000× g for 20 minutes at 4° C. This time, supernatants were discarded and the pellets were resuspended in 30-35 ml fresh Trisma 7.0 buffer by 1-10 second bursts with the polytron. The materials were centrifuged again at 40,000× g. Supernatants were again discarded. Each pellet was resuspended again with approximately 7 ml buffer. All this material was pooled into a 100 ml polypropylene container and stirred with a magnetic stirring bar. The tubes were rinsed with small amounts of buffer and the rinse was added to the membrane preparation. The homogenized membranes were aliquoted into 1.5 ml microfuge tubes and frozen at -70° C. Three aliquots were submitted for protein determinations by FPB (fluorescamine protein binding) assay.
Unless otherwise indicated, all binding experiments were performed in a final incubation volume of 250 μl. […] Both materials were received in solutions. […] Both solutions were brought to appropriate assay concentrations by dilution in assay buffer consisting of 50 mM Trisma 7.4 with 5 mM L-cysteine and 20 mM CaCl2. Membranes were also diluted with this assay buffer. […] Diluent was added to all other appropriate control tubes. Incubations were conducted for 30 minutes at 25° C. in a shaking water bath. Termination of the reaction was achieved by pouring the incubate over 2.5 cm Whatman GF/C filters soaked in assay buffer and set over the ports of Millipore filter vacuum manifolds. Filters were rinsed with 4 ml ice cold assay buffer 3 times. The filters were removed, placed in 10 ml Aquasol scintillation cocktail and allowed to cool in the dark for 2 hours prior to counting. All samples were corrected for background and isotope decay before converting DPM determination to mass.
These values were logit-transformed and linear regression was performed on the dose-response data. All dose-response sets used to calculate IC50 values contained data from 3-6 compound concentrations. […] IC50 values were calculated from the regression equation for the line.
male guinea pig lung homogenate which was aliquoted and stored at
-70° C. The particular preparation used to test the compounds of
Protein concentrations in these assays were adjusted
to provide aproximately 0.1 nM receptor in the presence of lnM ^3
HLTD4. Incubation was conducted for 30 min.
at 24° C. and filtration methods were used to separate bound from
tested were intially solubilized in DMSO. Each compound was evaluated at
dose of 10 μM (10^-5 M) in triplicate in 2 separate assays. The

[3] = read-out: LTD4 Receptor Binding Activity
[4] = read-out: LTD4 Receptor Binding Percent Inhibition, Test #1, triplicate, 30 min, 24° C.
[5] = read-out: LTD4 Receptor Binding Percent Inhibition, Test #2, triplicate, 30 min, 24° C.

Row | Structure (SMILES) | IC50 (LTB4 receptor) [nM] | Guinea Pig Ileum Contraction pA2 (guinea pig ileum; Table 2, LTD4 agonist) | IC50 (human neutrophils [1]) [nM] | IC50 (human neutrophils [2]) [nM] | Kb (guinea pig ileum) [nM] | Receptor Binding LTD4 IC50 (LTD4 receptor) | inhibition at 10 µM (LTD4 receptor; [3]) [%] | inhibition at 10 µM (LTD4 receptor; [4]) [%] | inhibition at 10 µM (LTD4 receptor; [5]) [%]
1 | CCCc1c(OCCCCCOc2ccc(C(C)=O)c(OC)c2CCC)ccc2c1OC(C(=O)O)CC2 (stereo not drawn) [Example 15, 7-[[5-(4-acetyl-3-methoxy-2-propylphenoxy)pentyl]oxy]-3,4-dihydro-8-propyl-2H-1-benzopyran-2-carboxylic acid] | 500 | Inactive | 6600 | 1500 |  |  |  |  | 
2 | CCCc1c(OCCCOc2ccc(C(C)=O)c(OC)c2CCC)ccc2c1OC(CCC(=O)O)CC2 (stereo not drawn) [Example 20, 7-[3-(4-acetyl-3-methoxy-2-propylphenoxy)propoxy]-3,4-dihydro-8-propyl-2H-1-benzopyran-2-propanoic acid] | 500 |  | 1700 | 40 | 316 | Inactive | < 45 | 13 | 23.5
3 | CCCc1c(OCCCOc2ccc3c(c2CCC)OC(C(=O)O)CC3)ccc(C(C)=O)c1O (stereo not drawn) [reference compound] |  |  |  |  | 25.1 |  |  |  | 
4 | CCCc1c(OCCCOc2ccc3c(=O)cc(C(=O)O)oc3c2CCC)ccc(C(C)=O)c1OC [Example 7, 7-[3-(4-acetyl-3-methoxy-2-propylphenoxy)propoxy]-4-oxo-8-propyl-4H-1-benzopyran-2-carboxylic acid] | 500 |  | 3600 | 3700 | 182 | Inactive | < 45 | 28.9 | 34.4
